The values that follow come from US20230167437A1, “COMPOSITIONS FOR TREATING CANCER WITH KRAS MUTATIONS AND USES THEREOF” (Aadigen, LLC, priority 2020, published 2023).

Series [1] has as its system KRAS 34G>T mutant G12C. As to the kind of experiment: Indel frequencies at the endogenous target sequences (T7E1 / deep sequencing) after ADGN/Cas9 mRNA/gRNA transfection. The class given is cell-based, human. The note with it: for indel frequencies: deep sequencing, 72 hours after transfection, Cas9 mRNA 0.1 μg, gRNA 0.2 μg; for indel editing and disruption of G12C mutant KRAS (FIG. 3A): H23, H358 vs HT29 and PANC1 cells. Here is the method:
(§1) Complex formation with mRNA:gRNA: ADGN peptide/mRNA/gRNA particles were prepared at a 20:1:1 molar ratio. ADGN/Cas9mRNA/sgRNA complexes were prepared at a 20/1/1 molar ratio with 0.5 μg mRNA: 1.5 μg sgRNA and 5% Glucose or DMEM (example for 96 well plates). […] Premixed Cas9 mRNA/gRNA were prepared in sterile water at room temperature in a glass vial (1-4 ml). ADGN-peptide solution was added dropwise (1 drop/sec) under magnetic agitation at 400 rpm to obtain a 1:2 ratio, and incubated for 30 min at room temperature or 37° C. Just before transfection, 150 μl Glucose or DMEM was added and the solution was mixed under magnetic agitation at 400 rpm for 1 minute. Then the solution was incubated for 5 min at 37° C. Then the complexes was ready for cell transfection or IV administration. Prior to IV administration, complexes were diluted in sucrose 5% solution.
(§2) Transfection protocol. The following protocols are reported for 24/48/96 well plate format transfection. Cells should be trypsinized and seeded a day prior transfection Cells were cultured in Dulbecco's Modified Eagle's Medium (DMEM), supplemented with 2 mM glutamine, 1% antibiotics (streptomycin 10,000 μg/mL, penicillin, 10,000 IU/mL) and 10% (w/v) foetal calf serum (FCS), at 37° C. in a humidified atmosphere containing 5% CO2. 96 well plates seeded with 50,000 cells, the day prior transfection, grown to 60-80% confluence and set up to be at around 70% confluence at the day of transfection. Before transfection, cells are washed twice with DMEM (without FBS and pen/strep) (100 μl/well). Cells were then overlaid with 25 μl of complex solution, mixed gently and incubated for 10 min at 37° C.+5% CO2. 50 μl of fresh DMEM (without FBS and Antibiotics) was added and cells were incubated for 2 h at 37° C.+5% CO2 (time of exposure can be adjusted based on sensitivity of the cells). 250 μL of DMEM (containing 10% FCS and 1% antibiotics) were then added without removing the overlay of ADGN peptide/mRNA complexes. Cells were returned to the incubator (37° C., 5% CO2) and analyzed 48 hours to 72 hours post transfection.
(§3) Eight different gRNAs targeting KRAS 34G>T mutant G12C (gRNA34T1, gRNA34T2, gRNA34T3, gRNA34T4, gRNA34T5, gRNA34T6, gRNA34T7 and gRNA34T8) were evaluated on MIA-PACA, H23, H358, H29 and PANC1 cells. Cas9 mRNA (0.1 μg) and gRNA (0.2 μg) were associated with ADGN peptide at molar ratio 20/1 (peptide/nucleic acid). MIA-PACA, H23, H358, PANC1 and HT29 cells were cultured in 48 well plate format and treated with free mRNACas9-gRNA, or ADGN/mRNACas9:gRNA complex. Indel frequencies at the endogenous target sequences was evaluated 72 hours after transfection by either T7E1 method or deep sequencing. Cell proliferation was analyzed over a period of 5 days using CellTiter Glow kits on GlowMax (Promega).
(§4) In order to confirm the specificity of sgRNAs targeting G12V, G12C or G12D KRAS mutation, gRNA35T3 targeting G12V, gRNA34T6 targeting G12C, and gRNA35A5 targeting G12D were evaluated on a large panel of cancer cells harboring different KRAS mutations including SW403, SW480, PANC1, PK-45H, PK-1, MIA-PACA, H23, H358, HT-29, HS-68 and LS513. Cas9 mRNA (0.2 μg) and gRNA (0.4 μg) were associated with ADGN peptide at molar ratio 20/1 (peptide/nucleic acid). Cells were cultured in 48 well plate format and treated with free mRNACas9-gRNA, or ADGN/mRNACas9:gRNA complex. Indel frequencies at the endogenous target sequences was evaluated 72 hours after transfection by either T7E1 method and cell proliferation was analyzed over a period of 5 days using CellTiter Glow kits on GlowMax (Promega).

In series [2] the test system is G12V, G12D, G12C KRAS mutant cells and WT KRAS cells. Description: Specificity of lead sgRNAs on a large panel of cancer cells harboring different KRAS mutations (indel, proliferation). The conditions noted are these: Cas9 mRNA 0.2 μg, gRNA 0.4 μg. It counts as cell-based, human. Here is the method:
as §4

Series [3] relates to Mia-PACA, H23 and H358 cells. As to the kind of experiment: Cell proliferation over 5 days (CellTiter Glow). It counts as cell-based, human. The conditions noted are these: for inhibition of proliferation or survival (FIG. 3B): H23, H358 vs KRAS WT HT29 or HS-68 and PANC1 cells. As to the method: as §2, §3
For orientation: ATP-based viability assays read luminescence as a measure of living cells.

The subject of series [4] is pERK. As to the kind of experiment: Downstream signaling proteins quantified by ELISA on tumors. The note with it: SW403 tumors. The class given is in vivo, mice. Here is the method:
The specificity of gRNA35A5 G12D and gRNA35T3 G12V for their targets in PANC-1 and SW403 tumors cells, have been analyzed. Female nude mice 6-weeks of age were injected with either Human pancreatic carcinoma cell (Panc1-Luc) containing the 35G>A mutation or Human colorectal cancer cells (SW403) containing 35G>T KRAS mutation (20×10^6 cells in 200 μl PBS). A period of 2 weeks was allowed for tumor development before the beginning of the experiments.
Animal were injected on day 1 and day 7. Mice received IV injection of 100 μl ADGN/mRNA complex in 5% glucose. At Day 50, animals were sacrificed and tissues/tumors were harvested. At Day 50 post treatment, level of expression of housekeeping genes; glyceraldehyde-3-phosphate dehydrogenase (GAPDH), HPRT-1 and mitochondrial ATP synthase 6 (mATPsy6) was evaluated by PCR in the tumor, liver, spleen and lung.
We analyzed the level of KRAS G12D or KRAS G12V gene editing by deep sequencing in PANC1 (FIG. 14A) and SW403 (FIG. 14B) tumors, respectively. […] The level of downstream signaling proteins (pAKT and pERK) were quantified by ELISA on PANC1 and SW403 tumors. […] Given that targeting KRAS using Cas9/sgRNA can induce various secondary mutations at or near the target sites, deep sequencing shown similar level of secondary oncogenic mutations (G12D, G12V, G12C, G13D, G12R, G12A, and G12S) in KRAS-mutant cancer cells (SW403/PANC-1) or cells containing wild-type KRAS (HT29) either in vitro or in vivo.
(ELISA stands for enzyme-linked immunosorbent assay.)

The subject of series [5] is SW403 and SW480 cells. As to the kind of experiment: Cell proliferation over 5 days (CellTiter Glow). The class given is cell-based, human. Here is the method: as §2
(§5) Nine different gRNAs targeting KRAS 35G>T mutant G12V (gRNA35T1, gRNA35T2, gRNA35T3, gRNA35T4, gRNA35T5, gRNA35T6, gRNA35T7, gRNA35T8 and gRNA35T9 (see FIG. 18)) were evaluated on SW403 and SW480 cancer cells harboring G12V KRAS mutation. Cas9 mRNA (0.15 μg) and gRNA (0.2 μg) were associated with ADGN-peptides as reported in experimental procedure. SW403, SW480 and HT-29 cells were cultured in 48 well plate format and treated with free mRNACas9-gRNA, or ADGN-100/mRNACas9:gRNA complex. Indel frequencies at the endogenous target sequences was evaluated 72 hours after transfection by either T7E1 method and by deep sequencing. Cell proliferation was analyzed over a period of 5 days using CellTiter Glow kits on GlowMax (Promega).

For series [6], the system named is phospho-Akt (Ser 473). Description: Western blot of KRAS downstream signaling 48 h post transfection. The class given is cell-based, human. The note with it: SW403 cells. Here is the method:
(§6) In order to verify the specific effect of your lead sgRNA targeting G12V and G12D KRAS mutation, gRNA35A5 G12D and gRNA35T3 G12V on KRAS signal transduction pathway in PANC-1 and SW403 cells, we measured the levels of downstream signaling proteins that are activated by KRAS. We specifically looked for changes in key signaling pathways, such as mitogen-activated protein kinase (MAPK) or PI3K/Akt, which are known to be the major effector pathways of KRAS activation. Cas9 mRNA (0.2 μg) and gRNA (0.2 μg or 0.5 μg) were associated with ADGN peptide at molar ratio 20/1 (peptide/nucleic acid). PANC1 and SW403 cells were cultured in 48 well plate format and treated with free mRNACas9-gRNA, or ADGN/mRNACas9:gRNA complex. Levels of Erk and Akt phosphorylation were measured 48 h post transfection by western blot using phospho-Akt (Ser 473) (CST, #9271, RRID:AB_329825) and phospho-p44/42 MAPK (Erk1/2) (Thr202/Tyr204) (CST, #4370, RRID:AB_2315112).
On the technique in general: In western blotting, separated proteins are transferred to a membrane and probed.

Series [7] concerns phospho-p44/42 MAPK (Erk1/2) (Thr202/Tyr204). Described as above. The class given is cell-based, human. The note with it: SW403 cells. Here is the method:
as §6

In series [8] the test system is KRAS 35G>T mutant G12V. Description: Indel frequencies at the endogenous target sequences (T7E1 / deep sequencing) after ADGN/Cas9 mRNA/gRNA transfection. It counts as cell-based, human. The conditions noted are these: for indel frequencies: deep sequencing, 72 hours after transfection, Cas9 mRNA 0.15 μg, gRNA 0.2 μg, ADGN-100. Here is the method: as §1, §2, §5, §4

“GTAGTTGGAGCTTGTGGCGT (guide GTAGTTGGAGCTTGTGGCGT; sgRNA, chemical modifications not given here, further chemistry not given here) [gRNA34T6, sgRNA target KRAS G12C mutation (34G>T); PAM AGG]”: the indel frequencies amounted to 78% in series [1] (H23 cells), 67% in series [1] (H358 cells) and 71% in series [1] (Mia-PACA cells). In addition, the indel frequency in series [1] (KRAS G12C mutated cancer cells) is listed as greater than 70%; in series [1] (Mia-PACA, H23 and H358 cells, T7E1, 72 hours, Cas9 mRNA 0.2 μg, gRNA 0.4 μg) it was greater than 70%. Moreover, the “indel editing and disruption of G12C mutant KRAS (FIG. 3A)” value (“indel editing and disruption … (FIG. 3A)” for short) in series [1] (Mia-PACA) is “induced indel editing and efficient disruption of G12C mutant KRAS”. The “effect on non-targeted KRAS mutant cells and WT KRAS cells (FIGS. 4A-4B)” value in series [2] was “does not alter G12D and G12V KRAS mutant cells or WT KRAS cells”. For the same sequence, the “fold more efficient than gRNA34T3 (cell proliferation)” value in series [3] stood at 3 fold. The “fold more efficient than gRNA34T5 (cell proliferation)” value in series [3] is given as 2 fold. The “inhibition of proliferation or survival (FIG. 3B)” value (“inhibition … (FIG. 3B)” for short) in series [3] (Mia-PACA) is “specifically inhibit proliferation or survival of Mia-PACA, H23 and H358 cells”. Further, in series [3] (Mia-PACA, H23 and H358 cells, 5 days), the cell proliferation blocked is on record as 75%.

For the sequence “GGTAGTTGGAGCTGTTGGCG (guide GGTAGTTGGAGCTGTTGGCG; chemistry not given here) [gRNA35T3, sgRNA target KRAS G12V mutation (c.35G>T); PAM TAG]”, the “level of p-ERK” value in series [4] is “significantly affected”. The “fold more efficient than gRNA35T6 (cell proliferation)” value in series [5] (SW403 and SW480 cells) came to 2 fold. In series [5] (SW403 and SW480 cells), the “fold more efficient than gRNA35T8 (cell proliferation)” value was found to be 1.5 fold. In series [5] (SW403 and SW480 cells, 5 days), this sequence returned a cell proliferation blocked of 75%. Further, the “inhibition of proliferation or survival (FIG. 1B)” value in series [5] (SW480 and SW403 cells vs HT29 cells harboring KRAS WT) is “specifically inhibit proliferation or survival of SW480 and SW403 cells”. In addition, the Akt phosphorylation result in series [6] is on record as “poorly”. Besides, the “level of p-Erk” value in series [7] is “significantly affected”. Further, in series [2], the “effect on non-targeted KRAS mutant cells and WT KRAS cells (FIGS. 4A-4B)” value is “does not alter G12D and G12C KRAS mutant cells or WT KRAS cells”. Further, the indel frequency in series [8] (KRAS G12V mutated cancer cells) is greater than 70%; in series [8] (SW403 and SW480 cells, T7E1, 72 hours, Cas9 mRNA 0.2 μg, gRNA 0.4 μg), greater than 65%. Further, in series [8] (SW403, SW480 vs wild type KRAS HT29 cells, T7E1), the “indel editing and disruption of G12V mutant KRAS (FIG. 1A)” value is “specifically induced indel editing and efficient disruption”. For the same sequence, the indel frequencies is given as 65% in series [8] (SW403 cells (heterozygous 35G>T)) and 81% in series [8] (SW480 cells (homozygous 35G>T)).

On to “GTT GGA GCT TGT GGC GT (guide GTTGGAGCTTGTGGCGT; chemistry not given here) [gRNA34T3, sgRNA target KRAS G12C mutation (34G>T); PAM AGG]”, for which the values for the indel frequencies in series [1] (H23 cells), in series [1] (H358 cells) and in series [1] (Mia-PACA cells) were 48%, 37% and 51%, respectively. In series [1] (Mia-PACA), the “indel editing and disruption … (FIG. 3A)” value was “induced indel editing and efficient disruption of G12C mutant KRAS”. Further, in series [3] (Mia-PACA), the “inhibition … (FIG. 3B)” value is “specifically inhibit proliferation or survival of Mia-PACA, H23 and H358 cells”.

For the sequence “CTTGTGGTAGTTGGAGCTTG (guide CTTGTGGTAGTTGGAGCTTG; chemistry not given here) [gRNA34T1, sgRNA target KRAS G12C mutation (34G>T); PAM TGG]”, the indel frequencies was 41% in series [1] (H23 cells), 29% in series [1] (H358 cells) and 34% in series [1] (Mia-PACA cells). In series [1] (Mia-PACA), the “indel editing and disruption … (FIG. 3A)” value is “induced indel editing and efficient disruption of G12C mutant KRAS”. Further, the “inhibition … (FIG. 3B)” value in series [3] (Mia-PACA) is “specifically inhibit proliferation or survival of Mia-PACA, H23 and H358 cells”.
